Values quoted from earlier work as cited in patent US10478452B2, “Antiviral pharmaceutical composition for topical use” (QUIMICA LUAR SRL, priority 2015, dated 2019).

Settings: according to some studies

concentrations of intracellular triphosphate ganciclovir relative to those of acyclovir: approximately ten-fold higher
mean life of intracellular triphosphate: more than 24 hours
Structure (SMILES): Nc1nc(O)c2ncn(COC(CO)CO)c2n1 [ganciclovir]
